In one experiment the target is T1, Histamine H3 receptor (Homo sapiens, UniProt Q9Y5N1). Nature of the experiment: Displacement of [3H]SMT from human histamine H3 receptor.
T1 sequence (Q9Y5N1 whole entry): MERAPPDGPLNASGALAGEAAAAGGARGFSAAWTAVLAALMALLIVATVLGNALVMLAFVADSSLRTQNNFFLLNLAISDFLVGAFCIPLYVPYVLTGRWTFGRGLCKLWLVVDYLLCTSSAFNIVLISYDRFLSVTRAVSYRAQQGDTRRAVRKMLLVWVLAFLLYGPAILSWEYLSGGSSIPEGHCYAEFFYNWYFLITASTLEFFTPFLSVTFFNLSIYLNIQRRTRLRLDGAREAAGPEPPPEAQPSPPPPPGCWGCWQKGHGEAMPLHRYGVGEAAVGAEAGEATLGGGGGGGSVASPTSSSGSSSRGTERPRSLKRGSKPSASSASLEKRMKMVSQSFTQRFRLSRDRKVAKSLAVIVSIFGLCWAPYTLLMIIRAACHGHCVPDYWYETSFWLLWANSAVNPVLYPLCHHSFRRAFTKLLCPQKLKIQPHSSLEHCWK
Turning to `O=C(NCCc1ccc(OCCN2CCOCC2)c(Br)c1)c1cc(Br)cs1`, the IC50 is 30400 nM and the Ki amounted to 13500 nM. For the compound `O=C(NCCc1ccc(OCCN2CCCC2)c(Br)c1)c1cnco1`, the IC50 was 80 nM and the affinity, expressed as Ki, was 30 nM. `CN(C)CCOc1ccc(CCNC(=O)c2cc(Br)cs2)cc1Br` displayed an IC50 of 1520 nM. With `CN(C)CCCOc1ccc(CCNC(=O)c2ccc(Br)o2)cc1Br`, the Ki is 2290 nM. As to `CN1CCCC(COc2ccc(CCNC(=O)c3ccc[nH]3)cc2Br)C1` (centres undefined), the Ki was found to be 1520 nM. `O=C(NCCc1ccc(OCCN2CCC(F)C2)c(Br)c1)c1cc(Br)cs1` (single isomer, unassigned; enantiomer 1): the IC50 is 2110 nM and the Ki was determined as 1100 nM.

For `O=C(NCCc1ccc(OCCN2CCOCC2)c(Br)c1)c1ccc(Br)o1`, the IC50 is 73200 nM and affinity was put at a Ki of 32500 nM. On the same counts, the results for `O=C(NCCc1ccc(OCCN2CCOCC2)c(Br)c1)c1cc(Br)c[nH]1` are 29100 nM and 12900 nM. In turn, `CN(C)CCCOc1ccc(CCNC(=O)c2ccc[nH]2)cc1Br` came in with a Ki of 1360 nM.

`O=C(NCCc1ccc(OCCN2CCOCC2)c(Br)c1)c1ccc[nH]1` had an IC50 of 59200 nM and a Ki of 26400 nM. In turn, `O=C(NCCc1ccc(OCCN2CCCC2)c(Br)c1)c1cncs1` returned an IC50 of 260 nM and a Ki of 120 nM. On the same counts, the results for `CC1CCCN1CCOc1ccc(CCNC(=O)c2cc(Br)cs2)cc1Br` (single isomer, unassigned; enantiomer 1) are 710 nM and 310 nM.

`CN1CCCC(COc2ccc(CCNC(=O)c3cccn3C)cc2Br)C1` (centres undefined) gave an IC50 of 3620 nM and a Ki of 1650 nM.

The compound `CN(C)CCCOc1ccc(CCNC(=O)c2cccn2C)cc1Br` came in with an IC50 of 3990 nM and a Ki of 1760 nM. Turning to `Cn1cccc1C(=O)NCCc1ccc(OCCN2CCCC2)c(Br)c1`, the IC50 was 310 nM. `O=C(NCCc1ccc(OCCN2CCC(F)C2)c(Br)c1)c1cc(Br)cs1` (stereo in doubt; 18d): the IC50 is 2520 nM and affinity was put at a Ki of 1150 nM. Compound `CN1CCCC(COc2ccc(CCNC(=O)c3ccc(Br)o3)cc2Br)C1` (centres undefined) returned an IC50 of 4560 nM. For `CN(C)CCOc1ccc(CCNC(=O)c2cccn2C)cc1Br`, the Ki came to 2130 nM.

Compound `O=C(NCCc1ccc(OCCN2CCCC2)c(Br)c1)c1nccs1` registered an IC50 of 70 nM and a Ki of 30 nM. On to `CC1CCCN1CCOc1ccc(CCNC(=O)c2cc(Br)cs2)cc1Br` (single isomer, unassigned; enantiomer 2), for which the IC50 worked out at 750 nM and the Ki worked out at 330 nM. As to `CN1CCCC(COc2ccc(CCNC(=O)c3cc(Br)c[nH]3)cc2Br)C1` (centres undefined), the IC50 worked out at 2940 nM and the Ki was 1330 nM. In the same order, the values of `CN1CCCC(COc2ccc(CCNC(=O)c3cc(Br)cs3)cc2Br)C1` (centres undefined) are 3730 nM and 1250 nM. As to `CN(C)CCOc1ccc(CCNC(=O)c2ccc[nH]2)cc1Br`, affinity was put at a Ki of 1550 nM. Regarding `Cn1cccc1C(=O)NCCc1ccc(OCCN2CCOCC2)c(Br)c1`, the half-inhibitory concentration (IC50) turned out to be 39600 nM and the Ki amounted to 17600 nM.

The next experiment addresses T1, Histamine H3 receptor. Nature of the experiment: Ratio of dispyrin Ki to compound Ki for human histamine H3 receptor.
`O=C(NCCc1ccc(OCCN2CCCC2)c(Br)c1)c1cc(Br)cs1`: the Ratio Ki was 13. With `O=C(NCCc1ccc(OCCN2CCCC2)c(Br)c1)c1nccs1`, the Ratio Ki is 33.

The next experiment has as its target T1, Histamine H3 receptor. Nature of the experiment: Ratio of dispyrin IC50 to compound IC50 for human histamine H3 receptor.
`O=C(NCCc1ccc(OCCN2CCCC2)c(Br)c1)c1cc(Br)cs1`: the Ratio IC50 was found to be 13. Take `O=C(NCCc1ccc(OCCN2CCCC2)c(Br)c1)c1nccs1`: the Ratio IC50 is 33.

For the origin of these results see ChEMBL document CHEMBL1158433, “A novel class of H3 antagonists derived from the natural product guided synthesis of unnatural analogs of the marine bromopyrrole alkaloid dispyrin” (Bioorg Med Chem Lett, 2009).
